Laboratory results from the NIST ThermoML archive (doi:10.1016/j.jct.2007.05.011).

Experiment: xn = mol fraction of the nth substance listed
Conditions: 101 kPa, Liquid; for mass density: Vibrating tube method

NCCO.O=CO [2-hydroxyethylammonium formate] + O
Conditions	mass density [kg/m3]	speed of sound [m/s]
305.65 K, x2 = 0	–	1690.8
305.65 K, x2 = 0.047	–	1723.5
305.65 K, x2 = 0.108	–	1725.2
305.65 K, x2 = 0.199	–	1726.8
305.65 K, x2 = 0.311	–	1728.3
305.65 K, x2 = 0.4	–	1728
305.65 K, x2 = 0.492	–	1727.3
305.65 K, x2 = 0.601	–	1723.5
305.65 K, x2 = 0.699	–	1717.4
305.65 K, x2 = 0.8	–	1697.5
305.65 K, x2 = 0.9	–	1649
305.65 K, x2 = 0.95	–	1598.9
308.15 K, x2 = 0	1169.39	1684.8
308.15 K, x2 = 0.047	1169.74	1718.4
308.15 K, x2 = 0.108	1168.41	1720.2
308.15 K, x2 = 0.199	1165.49	1721.9
308.15 K, x2 = 0.311	1160.67	1723.6
308.15 K, x2 = 0.4	1155.85	1723.5
308.15 K, x2 = 0.492	1149.4	1723
308.15 K, x2 = 0.601	1138.94	1719.6
308.15 K, x2 = 0.699	1125.12	1714.1
308.15 K, x2 = 0.8	1103.38	1695.2
308.15 K, x2 = 0.9	1066.39	1648.9
308.15 K, x2 = 0.95	1036.99	1600.8
310.65 K, x2 = 0	1167.62	1678.7
310.65 K, x2 = 0.047	1168.1	1713.4
310.65 K, x2 = 0.108	1166.77	1715.2
310.65 K, x2 = 0.199	1163.86	1717.1
310.65 K, x2 = 0.311	1159.05	1718.9
310.65 K, x2 = 0.4	1154.22	1718.9
310.65 K, x2 = 0.492	1147.79	1718.7
310.65 K, x2 = 0.601	1137.34	1715.6
310.65 K, x2 = 0.699	1123.56	1710.7
310.65 K, x2 = 0.8	1101.88	1692.8
310.65 K, x2 = 0.9	1065.06	1648.6
310.65 K, x2 = 0.95	1035.83	1602.4
313.15 K, x2 = 0	1165.84	1672.7
313.15 K, x2 = 0.047	1166.46	1708.3
313.15 K, x2 = 0.108	1165.14	1710.2
313.15 K, x2 = 0.199	1162.22	1712.1
313.15 K, x2 = 0.311	1157.42	1714.1
313.15 K, x2 = 0.4	1152.6	1714.4
313.15 K, x2 = 0.492	1146.17	1714.3
313.15 K, x2 = 0.601	1135.74	1711.7
313.15 K, x2 = 0.699	1121.98	1707.2
313.15 K, x2 = 0.8	1100.38	1690.4
313.15 K, x2 = 0.9	1063.71	1648.2
313.15 K, x2 = 0.95	1034.64	1603.8
315.65 K, x2 = 0	1164.06	1666.7
315.65 K, x2 = 0.047	1164.82	1703.3
315.65 K, x2 = 0.108	1163.51	1705.2
315.65 K, x2 = 0.199	1160.59	1707.2
315.65 K, x2 = 0.311	1155.79	1709.4
315.65 K, x2 = 0.4	1150.97	1709.8
315.65 K, x2 = 0.492	1144.56	1710
315.65 K, x2 = 0.601	1134.13	1707.6
315.65 K, x2 = 0.699	1120.4	1703.7
315.65 K, x2 = 0.8	1098.86	1687.8
315.65 K, x2 = 0.9	1062.35	1647.5
315.65 K, x2 = 0.95	1033.42	1604.9
318.15 K, x2 = 0	1162.29	1660.8
318.15 K, x2 = 0.047	1163.18	1698.3
318.15 K, x2 = 0.108	1161.88	1700.2
318.15 K, x2 = 0.199	1158.96	1702.4
318.15 K, x2 = 0.311	1154.16	1704.7
318.15 K, x2 = 0.4	1149.34	1705.2
318.15 K, x2 = 0.492	1142.94	1705.6
318.15 K, x2 = 0.601	1132.52	1703.6
318.15 K, x2 = 0.699	1118.82	1700.2
318.15 K, x2 = 0.8	1097.33	1685.1
318.15 K, x2 = 0.9	1060.95	1646.7
318.15 K, x2 = 0.95	1032.17	1605.8
320.65 K, x2 = 0	1160.51	1654.8
320.65 K, x2 = 0.047	1161.55	1693.3
320.65 K, x2 = 0.108	1160.25	1695.3
320.65 K, x2 = 0.199	1157.34	1697.5
320.65 K, x2 = 0.311	1152.53	1699.9
320.65 K, x2 = 0.4	1147.7	1700.6
320.65 K, x2 = 0.492	1141.31	1701.2
320.65 K, x2 = 0.601	1130.9	1699.5
320.65 K, x2 = 0.699	1117.22	1696.5
320.65 K, x2 = 0.8	1095.78	1682.4
320.65 K, x2 = 0.9	1059.54	1645.7
320.65 K, x2 = 0.95	1030.89	1606.4
323.15 K, x2 = 0	1158.73	1648.9
323.15 K, x2 = 0.047	1159.94	1688.4
323.15 K, x2 = 0.108	1158.62	1690.5
323.15 K, x2 = 0.199	1155.72	1692.7
323.15 K, x2 = 0.311	1150.91	1695.2
323.15 K, x2 = 0.4	1146.05	1696
323.15 K, x2 = 0.492	1139.69	1696.8
323.15 K, x2 = 0.601	1129.29	1695.4
323.15 K, x2 = 0.699	1115.62	1692.8
323.15 K, x2 = 0.8	1094.23	1679.5
323.15 K, x2 = 0.9	1058.12	1644.6
323.15 K, x2 = 0.95	1029.58	1606.8
